The target in one assay is AXL (Homo sapiens, UniProt P30530). Description: Kinase panel: AXL. The format is biochemical. The settings on record: 10 μM EP009. On the procedure: (§1) Achieving JAK3 selectivity remains a significant challenge in the development of new small molecules for the treatment of cancer and immune-derived diseases. As such, the inventors employed cell-based screening assays of small-molecule libraries based upon the chemical scaffold of the established JAK3 inhibitor NC1153 (Stepkowski et al., J Immunol. (2005), 175(7):4236-4246) EP009 (FIG. 2A) was selected as a lead compound due to improved intrinsic stability (>95% purity in various solvents at 37° C. for 24 hours; FIG. 3) and high-degree of JAK3 selectivity. To test JAK3 versus JAK2 specificity of EP009, the IL-2/JAK3-dependent Kit225, and IL-3/JAK2-dependent BaF/3 cell lines were used. Kit225 and BaF/3 cells growing in the presence of IL-2 or IL-3, respectively, were treated with ascending concentrations of EP009 for 12 hours and cellular JAK3 and JAK2 tyrosine phosphorylation levels detected by Western blot analysis (FIGS. 2B and 2C). Following densitometric analysis, EP009 was determined to dose-dependently reduce IL-2-mediated JAK3 tyrosine phosphorylation with a cellular 50% inhibitory concentration (IC50) between 10 and 20 μM (FIG. 2B). […] To globally evaluate specificity, the inhibitory activity of EP009 was measured against a panel of protein kinases distributed throughout the kinome using the scanEDGE profiling service (KINOMEscan). […]

A further assay deals with CSNK1D (Homo sapiens, UniProt P48730). As to the kind of experiment: Kinase panel: CSNK1D. In kind it is biochemical. The settings on record: 10 μM EP009. The method, then:
as §1

Another assay deals with PLK1 (Homo sapiens, UniProt P53350). Description: Kinase panel: PLK1. The format is biochemical. As to conditions: 10 μM EP009. On the procedure: as §1
A further assay concerns the target ZAP70 (Homo sapiens, UniProt P43403). Description: Kinase panel: ZAP70. The format is biochemical. As to conditions: 10 μM EP009. On the procedure: as §1
The next assay deals with MAP3K4 (Homo sapiens, UniProt Q9Y6R4). Description: Kinase panel: MAP3K4. The format is biochemical. As to conditions: 10 μM EP009. The method, then:
as §1

In another assay the target is ERBB4 (Homo sapiens, UniProt Q15303). As to the kind of experiment: Kinase panel: ERBB4. The format is biochemical. As to conditions: 10 μM EP009. On the procedure: as §1
Another assay deals with T1, JAK2 (Mus musculus, UniProt Q62120).
T1 construct: cellular JAK3 and JAK2 tyrosine phosphorylation levels detected by Western blot analysis; endogenous in cells; host or cells: Ba/F3 (BaF/3)
As to the kind of experiment: IL-3-induced JAK2 tyrosine phosphorylation in BaF/3 cells (IP/Western blot). In kind it is cell-based, murine. The settings on record: 12 hours, concentrations up to 50 μM. On the procedure: FIGS. 2A-2F. Selective inhibition of JAK3 by EP009 results in loss of JAK3-dependent tumor cell line viability with no detectable off-target effects in key cell types. (A) Chemical structure of EP009 (M.W. 224.34). (B) Kit225 or (C) BaF/3 cells cultured in the presence of IL-2 or IL-3, respectively, were treated with vehicle (PBS; lane a) or increasing amounts of EP009 (0-50 μM; lanes b-h) for 12 hours. Cells were then lysed, clarified, and immunoprecipitated (IP) with anti-JAK3 (α-JAK3) or anti-JAK2 (α-JAK2), and subjected to Western blot (WB) analysis with anti-phosphotyrosine (α-pY). Blots were stripped and reprobed with corresponding antibody to verify equivalent protein loading. […] (E) Kit225 or BaF/3 cells were cultured with increasing amounts of EP009 (0-10 μM) for 72 hours and cell viability measured with the MTS tetrazolium salt assay. Values represent mean absorbance (OD490-OD650 nm) normalized to vehicle (PBS) treated control cells, while error bars represent the standard deviation (n=3). (F) HEK293, HEPG2, or naïve primary human PBMCs were cultured with increasing amounts of EP009 (0-10 μM) for 72 hours and cell viability measured with the MTS tetrazolium salt assay. Values represent mean absorbance (OD490-OD650 nm) normalized to vehicle (PBS) treated control cells, while error bars represent the standard deviation (n=3). […]
In general terms: In western blotting, separated proteins are transferred to a membrane and probed.

The next assay concerns the target IKK-beta (Homo sapiens, UniProt O14920). As to the kind of experiment: Kinase panel: IKK-beta. In kind it is biochemical. The settings on record: 10 μM EP009. The method, then:
as §1

The target of another assay is PIK3C2B (Homo sapiens, UniProt O00750). Description: Kinase panel: PIK3C2B. The format is biochemical. As to conditions: 10 μM EP009. On the procedure: as §1
The target of another assay is p38-alpha (Homo sapiens, UniProt Q16539). Description: Kinase panel: p38-alpha. The format is biochemical. As to conditions: 10 μM EP009. On the procedure:
as §1

The source of these data is US9371265B2, “Compositions and methods related to inhibitors of JAK kinase” (EP PHARMA, INC., priority 2012, dated 2016).

ERBB4, sequence (Q15303 26-1308): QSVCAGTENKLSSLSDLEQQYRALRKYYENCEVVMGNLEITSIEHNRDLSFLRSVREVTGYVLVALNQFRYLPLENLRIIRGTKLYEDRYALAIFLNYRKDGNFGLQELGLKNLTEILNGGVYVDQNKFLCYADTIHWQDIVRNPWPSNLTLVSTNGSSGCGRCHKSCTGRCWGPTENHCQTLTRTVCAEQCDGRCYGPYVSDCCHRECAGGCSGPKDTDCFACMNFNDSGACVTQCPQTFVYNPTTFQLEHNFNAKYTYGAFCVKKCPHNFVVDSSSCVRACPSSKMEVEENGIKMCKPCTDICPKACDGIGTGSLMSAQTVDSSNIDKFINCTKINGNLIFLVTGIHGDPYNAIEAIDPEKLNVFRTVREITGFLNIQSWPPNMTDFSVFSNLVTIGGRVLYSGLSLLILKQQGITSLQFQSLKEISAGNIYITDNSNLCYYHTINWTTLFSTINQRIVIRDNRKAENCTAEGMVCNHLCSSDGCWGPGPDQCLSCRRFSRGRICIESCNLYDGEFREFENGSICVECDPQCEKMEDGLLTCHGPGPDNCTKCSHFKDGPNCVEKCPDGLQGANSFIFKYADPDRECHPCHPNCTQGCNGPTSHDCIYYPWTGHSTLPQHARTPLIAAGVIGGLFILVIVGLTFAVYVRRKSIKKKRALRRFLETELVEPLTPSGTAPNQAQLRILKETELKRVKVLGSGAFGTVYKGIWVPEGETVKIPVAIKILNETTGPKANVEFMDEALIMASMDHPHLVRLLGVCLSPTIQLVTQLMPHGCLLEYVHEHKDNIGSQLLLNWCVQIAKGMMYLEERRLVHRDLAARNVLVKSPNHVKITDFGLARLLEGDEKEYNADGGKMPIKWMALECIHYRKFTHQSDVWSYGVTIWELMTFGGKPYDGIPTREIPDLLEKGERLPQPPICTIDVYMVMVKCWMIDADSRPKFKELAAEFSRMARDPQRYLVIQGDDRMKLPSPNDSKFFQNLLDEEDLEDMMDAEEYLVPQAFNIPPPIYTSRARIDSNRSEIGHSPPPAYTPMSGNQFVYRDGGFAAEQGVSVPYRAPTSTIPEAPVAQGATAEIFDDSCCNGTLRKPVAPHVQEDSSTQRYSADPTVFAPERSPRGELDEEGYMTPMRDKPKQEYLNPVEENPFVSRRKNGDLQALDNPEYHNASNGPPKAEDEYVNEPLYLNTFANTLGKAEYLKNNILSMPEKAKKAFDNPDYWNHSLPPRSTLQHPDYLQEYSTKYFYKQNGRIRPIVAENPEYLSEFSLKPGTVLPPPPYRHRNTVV
T1 sequence (Q62120 whole entry): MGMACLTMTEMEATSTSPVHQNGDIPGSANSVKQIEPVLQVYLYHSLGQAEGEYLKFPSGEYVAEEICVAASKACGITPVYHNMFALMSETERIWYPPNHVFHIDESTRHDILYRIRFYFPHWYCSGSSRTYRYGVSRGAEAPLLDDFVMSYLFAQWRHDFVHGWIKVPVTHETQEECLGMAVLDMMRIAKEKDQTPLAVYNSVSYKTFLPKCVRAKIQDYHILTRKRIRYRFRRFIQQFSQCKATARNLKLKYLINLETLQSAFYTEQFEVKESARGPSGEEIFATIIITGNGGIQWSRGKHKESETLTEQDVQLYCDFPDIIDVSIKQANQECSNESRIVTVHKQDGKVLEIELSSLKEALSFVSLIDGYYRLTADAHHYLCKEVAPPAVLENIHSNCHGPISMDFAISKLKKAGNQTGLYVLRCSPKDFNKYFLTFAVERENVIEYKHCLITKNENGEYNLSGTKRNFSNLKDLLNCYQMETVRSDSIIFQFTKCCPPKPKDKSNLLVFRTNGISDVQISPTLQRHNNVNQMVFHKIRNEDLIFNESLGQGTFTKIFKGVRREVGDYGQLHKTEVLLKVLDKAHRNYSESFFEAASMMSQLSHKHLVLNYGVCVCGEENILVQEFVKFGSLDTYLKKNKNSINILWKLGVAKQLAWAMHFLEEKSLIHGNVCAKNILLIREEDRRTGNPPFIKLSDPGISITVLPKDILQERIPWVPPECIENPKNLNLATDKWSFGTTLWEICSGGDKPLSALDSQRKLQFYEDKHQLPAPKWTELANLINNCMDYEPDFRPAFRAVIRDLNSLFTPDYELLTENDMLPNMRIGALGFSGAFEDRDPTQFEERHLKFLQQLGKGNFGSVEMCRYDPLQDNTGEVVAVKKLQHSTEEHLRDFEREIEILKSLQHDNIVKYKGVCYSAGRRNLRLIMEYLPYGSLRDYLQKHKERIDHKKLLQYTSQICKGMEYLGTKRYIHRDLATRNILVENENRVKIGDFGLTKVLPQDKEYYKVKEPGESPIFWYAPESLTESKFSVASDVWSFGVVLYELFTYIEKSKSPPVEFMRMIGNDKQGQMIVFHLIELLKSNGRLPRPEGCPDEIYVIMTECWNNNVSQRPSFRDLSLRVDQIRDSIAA
ZAP70, sequence (P43403 whole entry): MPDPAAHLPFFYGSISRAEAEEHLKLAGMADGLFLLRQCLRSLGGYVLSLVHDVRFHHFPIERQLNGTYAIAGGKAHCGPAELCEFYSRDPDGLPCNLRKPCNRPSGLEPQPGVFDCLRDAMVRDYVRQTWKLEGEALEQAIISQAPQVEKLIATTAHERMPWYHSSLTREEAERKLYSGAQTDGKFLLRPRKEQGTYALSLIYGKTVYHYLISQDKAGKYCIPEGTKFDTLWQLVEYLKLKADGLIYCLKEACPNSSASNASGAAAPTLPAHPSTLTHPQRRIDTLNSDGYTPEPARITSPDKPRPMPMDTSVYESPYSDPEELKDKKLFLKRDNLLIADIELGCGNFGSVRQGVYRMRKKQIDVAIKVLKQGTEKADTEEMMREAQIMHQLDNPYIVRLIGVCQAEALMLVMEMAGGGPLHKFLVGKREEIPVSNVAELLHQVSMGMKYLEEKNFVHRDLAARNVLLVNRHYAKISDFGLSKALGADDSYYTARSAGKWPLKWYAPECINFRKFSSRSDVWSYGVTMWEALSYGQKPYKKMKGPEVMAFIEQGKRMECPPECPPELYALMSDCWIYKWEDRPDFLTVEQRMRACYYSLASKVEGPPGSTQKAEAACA
PLK1, sequence (P53350 whole entry): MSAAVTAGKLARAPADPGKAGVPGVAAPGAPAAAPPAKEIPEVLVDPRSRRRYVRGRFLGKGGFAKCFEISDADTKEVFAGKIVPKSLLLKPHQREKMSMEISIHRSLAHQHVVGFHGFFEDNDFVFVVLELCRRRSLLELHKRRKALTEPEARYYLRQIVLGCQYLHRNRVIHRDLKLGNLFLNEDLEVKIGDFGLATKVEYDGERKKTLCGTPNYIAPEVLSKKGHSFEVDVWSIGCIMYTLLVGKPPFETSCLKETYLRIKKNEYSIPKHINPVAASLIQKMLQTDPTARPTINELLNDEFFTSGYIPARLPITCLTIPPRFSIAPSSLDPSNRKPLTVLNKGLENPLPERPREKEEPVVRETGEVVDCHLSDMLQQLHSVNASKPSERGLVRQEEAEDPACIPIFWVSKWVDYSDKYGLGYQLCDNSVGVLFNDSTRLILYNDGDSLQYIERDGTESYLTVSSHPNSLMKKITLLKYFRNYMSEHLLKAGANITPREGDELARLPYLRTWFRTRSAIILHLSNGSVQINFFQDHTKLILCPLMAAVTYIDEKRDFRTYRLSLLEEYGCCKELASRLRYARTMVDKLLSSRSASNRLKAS
p38-alpha, sequence (Q16539 whole entry): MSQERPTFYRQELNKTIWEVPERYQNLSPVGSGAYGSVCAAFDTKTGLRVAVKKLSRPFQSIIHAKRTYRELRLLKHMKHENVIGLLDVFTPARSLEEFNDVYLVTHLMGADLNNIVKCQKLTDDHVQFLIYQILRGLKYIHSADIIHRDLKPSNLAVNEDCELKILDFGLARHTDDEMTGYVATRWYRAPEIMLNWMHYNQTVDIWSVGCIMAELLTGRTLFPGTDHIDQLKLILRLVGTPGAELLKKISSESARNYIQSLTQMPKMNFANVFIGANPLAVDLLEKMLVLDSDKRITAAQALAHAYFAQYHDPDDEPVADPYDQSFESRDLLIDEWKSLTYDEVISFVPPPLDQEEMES
AXL, sequence (P30530 26-894): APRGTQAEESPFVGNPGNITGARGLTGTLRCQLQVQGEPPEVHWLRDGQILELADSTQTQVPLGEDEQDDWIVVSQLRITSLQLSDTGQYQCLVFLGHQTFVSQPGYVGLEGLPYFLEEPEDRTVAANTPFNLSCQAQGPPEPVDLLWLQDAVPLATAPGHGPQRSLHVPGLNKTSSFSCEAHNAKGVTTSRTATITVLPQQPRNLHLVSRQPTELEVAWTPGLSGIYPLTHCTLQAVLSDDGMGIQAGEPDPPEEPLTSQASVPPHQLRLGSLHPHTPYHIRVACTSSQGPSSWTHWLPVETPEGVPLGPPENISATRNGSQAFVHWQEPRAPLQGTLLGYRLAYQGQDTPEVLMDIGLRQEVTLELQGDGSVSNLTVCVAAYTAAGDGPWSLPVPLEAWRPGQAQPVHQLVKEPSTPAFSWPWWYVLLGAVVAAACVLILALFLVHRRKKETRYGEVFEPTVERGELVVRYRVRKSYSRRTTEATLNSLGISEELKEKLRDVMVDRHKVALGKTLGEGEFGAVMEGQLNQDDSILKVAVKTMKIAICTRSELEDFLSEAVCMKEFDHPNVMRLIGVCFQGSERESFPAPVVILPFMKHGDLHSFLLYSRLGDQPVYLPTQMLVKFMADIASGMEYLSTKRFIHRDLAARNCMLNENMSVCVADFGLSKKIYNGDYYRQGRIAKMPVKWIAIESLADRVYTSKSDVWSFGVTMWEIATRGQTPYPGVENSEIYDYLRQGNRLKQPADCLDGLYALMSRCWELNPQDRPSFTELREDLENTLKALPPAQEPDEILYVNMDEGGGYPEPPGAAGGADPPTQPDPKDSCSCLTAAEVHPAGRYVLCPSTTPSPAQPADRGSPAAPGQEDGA

As for `C=C1CCCCCCCCCC(CO)C1=O` (stereo not shown) [EP009, 2-(Hydroxymethyl)-12-methylenecyclododecanone], the “Kinase Activity (% of Control)” value is reported as 96 % of Control at AXL; 100 % of Control at CSNK1D; 100 % of Control at PLK1; 99 % of Control at ZAP70; 87 % of Control at MAP3K4; 91 % of Control on ERBB4. Further, the “Kinase Activity (% of Control)” value on IKK-beta is reported as 73 % of Control; on PIK3C2B, 70 % of Control; on p38-alpha it was 100 % of Control. In addition, the “effect on IL-3-induced JAK2 tyrosine phosphorylation” value on JAK2 is reported as “no detectable effect”.
